Experiments:
PTRGER4 (EP4) = PTRGER4 (EP4) (Homo sapiens (Human), UniProt P35408); test: hEP4 b-arrestin assay (PathHunter HEK 293 PTGER4 b-arrestin cells); type: cell-based; conditions: hEP4 b-arrestin assay (values without asterisk)
Method in brief: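 Antagonist mode: compound is given 15 min at 37 °C, then 20 nM (final) PGE2 for 120 min, in HEK293 cells stably expressing EP4 fused to ProLink and β-arrestin 2 fused to EA. Recruitment read as β-gal luminescence after 1 h reagent at room temperature, as percent of DMSO control.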

PTGER2 (EP2) = PTGER2 (EP2) (Homo sapiens (Human), UniProt P43116); test: hEP2 b-arrestin assay (PathHunter HEK 293 PTGER2 b-arrestin cells); type: cell-based; conditions: hEP2 b-arrestin assay (values without asterisk)
Method in brief: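 Readout is β-galactosidase complementation luminescence, expressed as percent of DMSO control (duplicates). PathHunter HEK293 EP2/β-arrestin 2 cells, grown 24 h, received compound for 15 min at 37 °C before a 120 min challenge with PGE2 at 5 μM final, followed by 1 h detection at room temperature.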

PTRGER4 (EP4), sequence (P35408 whole entry, looked up, the tested form may be a part): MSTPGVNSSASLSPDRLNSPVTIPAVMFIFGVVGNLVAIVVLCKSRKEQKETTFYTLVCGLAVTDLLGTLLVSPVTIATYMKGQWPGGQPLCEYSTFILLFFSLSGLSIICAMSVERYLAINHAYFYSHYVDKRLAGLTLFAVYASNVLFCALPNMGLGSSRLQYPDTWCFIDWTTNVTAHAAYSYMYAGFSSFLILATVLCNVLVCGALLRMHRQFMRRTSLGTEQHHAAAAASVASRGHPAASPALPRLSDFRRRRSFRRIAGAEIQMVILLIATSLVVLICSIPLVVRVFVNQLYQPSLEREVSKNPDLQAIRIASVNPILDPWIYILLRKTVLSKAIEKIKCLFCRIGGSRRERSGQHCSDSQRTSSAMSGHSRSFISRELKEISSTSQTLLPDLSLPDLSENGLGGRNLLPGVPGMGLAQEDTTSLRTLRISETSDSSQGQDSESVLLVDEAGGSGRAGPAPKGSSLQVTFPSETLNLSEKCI
PTGER2 (EP2), sequence (P43116 whole entry): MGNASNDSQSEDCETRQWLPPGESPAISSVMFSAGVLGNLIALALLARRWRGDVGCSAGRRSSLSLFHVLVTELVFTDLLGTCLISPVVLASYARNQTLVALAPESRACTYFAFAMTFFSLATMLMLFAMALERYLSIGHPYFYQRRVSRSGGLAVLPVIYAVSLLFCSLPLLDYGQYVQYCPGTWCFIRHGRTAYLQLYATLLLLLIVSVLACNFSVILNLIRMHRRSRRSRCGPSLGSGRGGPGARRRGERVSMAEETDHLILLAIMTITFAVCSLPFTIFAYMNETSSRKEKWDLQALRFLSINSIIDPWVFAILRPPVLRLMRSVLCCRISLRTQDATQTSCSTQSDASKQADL

Structure (SMILES) | IC50 (PTRGER4 (EP4)) | IC50 (PTGER2 (EP2))
COc1ccc(F)c2c1cc(C#N)n2CCNc1cc(-c2ccc3oc(=O)n(C)c3c2)ncn1 [Example 973, 7-Fluoro-4-methoxy-1-{2-[6-(3-methyl-2-oxo-2,3-dihydro-benzooxazol-5-yl)-pyrimidin-4-ylamino]-ethyl}-1H-indole-2-carbonitrile] | 49 nM | 15 nM
COc1ccc(F)c2c1cc(C#N)n2CCNc1cc(-c2ccc(C(=O)O)cc2)ncn1 [Example 974, 4-{6-[2-(2-Cyano-7-fluoro-4-methoxy-indol-1-yl)-ethylamino]-pyrimidin-4-yl}-benzoic acid] | 84 nM | 36 nM
COc1ccc(F)c2c1cc(C#N)n2CCNc1cc(-c2ccnc(N3CCC3)c2)ncn1 [Example 975, 1-{2-[6-(2-Azetidin-1-yl-pyridin-4-yl)-pyrimidin-4-ylamino]-ethyl}-7-fluoro-4-methoxy-1H-indole-2-carbonitrile] | 55 nM | 44 nM
COc1ccc(F)c2c1cc(C#N)n2CCNc1cc(-c2ccnc(N3CCCCC3)c2)ncn1 [Example 976, 7-Fluoro-4-methoxy-1-{2-[6-(3,4,5,6-tetrahydro-2H-[1,2′]bipyridinyl-4′-yl)-pyrimidin-4-ylamino]-ethyl}-1H-indole-2-carbonitrile] | 317 nM | 194 nM
COc1ccc(F)c2c1cc(C#N)n2CCNc1cc(-c2ccc3[nH]ncc3c2)ncn1 [Example 977, 7-Fluoro-1-{2-[6-(1H-indazol-5-yl)-pyrimidin-4-ylamino]-ethyl}-4-methoxy-1H-indole-2-carbonitrile] | 6 nM | 5 nM
COc1ccc(F)c2c1cc(C#N)n2CCNc1cc(-c2c[nH]c3ncccc23)ncn1 [Example 978, 7-Fluoro-4-methoxy-1-{2-[6-(1H-pyrrolo[2,3-b]pyridin-3-yl)-pyrimidin-4-ylamino]-ethyl}-1H-indole-2-carbonitrile] | 16 nM | 1 nM
COc1ccc(F)c2c1cc(C#N)n2CCNc1cc(-c2cnc3[nH]ccc3c2)ncn1 [Example 979, 7-Fluoro-4-methoxy-1-{2-[6-(1H-pyrrolo[2,3-b]pyridin-5-yl)-pyrimidin-4-ylamino]-ethyl}-1H-indole-2-carbonitrile] | 15 nM | 4 nM
COc1ccc(F)c2c1cc(C#N)n2CCNc1cc(-c2cnc3c(ccn3C)c2)ncn1 [Example 980, 7-Fluoro-4-methoxy-1-{2-[6-(1-methyl-1H-pyrrolo[2,3-b]pyridin-5-yl)-pyrimidin-4-ylamino]-ethyl}-1H-indole-2-carbonitrile] | 12 nM | 21 nM
COc1cc2[nH]ncc2cc1-c1cc(NCCn2c(C#N)cc3c(OC)ccc(F)c32)ncn1 [Example 981, 7-Fluoro-4-methoxy-1-{2-[6-(6-methoxy-1H-indazol-5-yl)-pyrimidin-4-ylamino]-ethyl}-1H-indole-2-carbonitrile] | 58 nM | 59 nM
CCNC(=O)Nc1ccc(-c2cc(NCCn3c(C#N)cc4c(OC)ccc(F)c43)ncn2)cc1OC [Example 982, 1-(4-{6-[2-(2-Cyano-7-fluoro-4-methoxy-indol-1-yl)-ethylamino]-pyrimidin-4-yl}-2-methoxy-phenyl)-3-ethyl-urea] | 3 nM | 18 nM
COc1ccc(F)c2c1cc(C#N)n2CCNc1cc(-c2ccc(CNS(C)(=O)=O)cc2)ncn1 [Example 983, N-(4-{6-[2-(2-Cyano-7-fluoro-4-methoxy-indol-1-yl)-ethylamino]-pyrimidin-4-yl}-benzyl)-methanesulfonamide] | 244 nM | 248 nM
COc1ccc(F)c2c1cc(C#N)n2CCNc1cc(-c2ccc3[nH]cnc3c2)ncn1 [Example 984, 1-{2-[6-(1H-Benzoimidazol-5-yl)-pyrimidin-4-ylamino]-ethyl}-7-fluoro-4-methoxy-1H-indole-2-carbonitrile] | 28 nM | 8 nM

Reference: patent US12011444B2, “N-substituted indole derivatives as PGE2 receptor modulators” (Idorsia Pharmaceuticals Ltd, priority 2015, dated 2024)
